# Measurements: patent US7176313B2, “Anti acid-fast bacterial agent containing pyridonecarboxylic acids as active ingredient” (Daiichi Pharmaceutical Co., Ltd., priority 2000, dated 2007)
# Tested on: M. intracellulare
# Assay: Antibacterial activity (MIC) against M. intracellulare
# Type: cell-based, Mycobacterium intracellulare
# Conditions: M. intracellulare N-294; Table 3
# Method: Antibacterial activity of the compounds of the invention was measured in accordance with the method described in the literature of Antimicrob. Agents and Chemother., 38, 2877 (1994), and the results are shown in Tables 3 to 8 in terms of MIC (μg/ml). In the tables, “OFLX” is an abbreviation of “OFLOXAIN”.
row,SMILES,MIC
1,Cc1c(N2CC3CCCNC3C2)c(F)cc2c(=O)c(C(=O)O)cn(C3CC3)c12 (centres unmarked) [Compd. 9],0.39 µg/mL
2,Cc1c(N2CC3CCCNC3C2)c(F)cc2c(=O)c(C(=O)O)cn([C@@H]3C[C@@H]3F)c12 (some centres unmarked) [Compd. 10],0.39 µg/mL
3,Cc1c(N2CC(N)C3(CC3)C2)c(F)cc2c(=O)c(C(=O)O)cn(C3CC3)c12 (centres unmarked) [Compd. 11],1.56 µg/mL
4,Cc1c(N2CC(N)C3(CC3)C2)c(F)cc2c(=O)c(C(=O)O)cn([C@@H]3C[C@@H]3F)c12 (some centres unmarked) [Compd. 12],0.78 µg/mL

# Same assay, conditions: M. intracellulare N-313; Table 3
row,SMILES,MIC
1,Cc1c(N2CC3CCCNC3C2)c(F)cc2c(=O)c(C(=O)O)cn(C3CC3)c12 (centres unmarked) [Compd. 9],0.10 µg/mL
2,Cc1c(N2CC3CCCNC3C2)c(F)cc2c(=O)c(C(=O)O)cn([C@@H]3C[C@@H]3F)c12 (some centres unmarked) [Compd. 10],0.10 µg/mL
3,Cc1c(N2CC(N)C3(CC3)C2)c(F)cc2c(=O)c(C(=O)O)cn(C3CC3)c12 (centres unmarked) [Compd. 11],0.39 µg/mL
4,Cc1c(N2CC(N)C3(CC3)C2)c(F)cc2c(=O)c(C(=O)O)cn([C@@H]3C[C@@H]3F)c12 (some centres unmarked) [Compd. 12],0.20 µg/mL

# Same assay, conditions: M. intracellulare N-338; Table 3
row,SMILES,MIC
1,Cc1c(N2CC3CCCNC3C2)c(F)cc2c(=O)c(C(=O)O)cn(C3CC3)c12 (centres unmarked) [Compd. 9],0.39 µg/mL
2,Cc1c(N2CC3CCCNC3C2)c(F)cc2c(=O)c(C(=O)O)cn([C@@H]3C[C@@H]3F)c12 (some centres unmarked) [Compd. 10],0.39 µg/mL
3,Cc1c(N2CC(N)C3(CC3)C2)c(F)cc2c(=O)c(C(=O)O)cn(C3CC3)c12 (centres unmarked) [Compd. 11],1.56 µg/mL
4,Cc1c(N2CC(N)C3(CC3)C2)c(F)cc2c(=O)c(C(=O)O)cn([C@@H]3C[C@@H]3F)c12 (some centres unmarked) [Compd. 12],0.39 µg/mL

# Same assay, conditions: M. intracellulare N-345; Table 3
row,SMILES,MIC
1,Cc1c(N2CC3CCCNC3C2)c(F)cc2c(=O)c(C(=O)O)cn(C3CC3)c12 (centres unmarked) [Compd. 9],0.39 µg/mL
2,Cc1c(N2CC3CCCNC3C2)c(F)cc2c(=O)c(C(=O)O)cn([C@@H]3C[C@@H]3F)c12 (some centres unmarked) [Compd. 10],0.78 µg/mL
3,Cc1c(N2CC(N)C3(CC3)C2)c(F)cc2c(=O)c(C(=O)O)cn(C3CC3)c12 (centres unmarked) [Compd. 11],3.13 µg/mL
4,Cc1c(N2CC(N)C3(CC3)C2)c(F)cc2c(=O)c(C(=O)O)cn([C@@H]3C[C@@H]3F)c12 (some centres unmarked) [Compd. 12],0.39 µg/mL

# Tested on: Mycobacterium tuberculosis (RFP sensitive)
# Assay: Antibacterial activity (MIC) against Mycobacterium tuberculosis (RFP sensitive)
# Type: cell-based
# Conditions: M. tuberculosis H37Rv; Table 5
row,SMILES,MIC
1,Cc1c(N2CC3CCCNC3C2)c(F)cc2c(=O)c(C(=O)O)cn(C3CC3)c12 (centres unmarked) [Compd. 9],0.025 µg/mL
2,Cc1c(N2CC3CCCNC3C2)c(F)cc2c(=O)c(C(=O)O)cn([C@@H]3C[C@@H]3F)c12 (some centres unmarked) [Compd. 10],0.013 µg/mL
3,Cc1c(N2CC(N)C3(CC3)C2)c(F)cc2c(=O)c(C(=O)O)cn(C3CC3)c12 (centres unmarked) [Compd. 11],0.05 µg/mL
4,Cc1c(N2CC(N)C3(CC3)C2)c(F)cc2c(=O)c(C(=O)O)cn([C@@H]3C[C@@H]3F)c12 (some centres unmarked) [Compd. 12],0.025 µg/mL

# Same assay, conditions: M. tuberculosis Kurono; Table 5
row,SMILES,MIC
1,Cc1c(N2CC3CCCNC3C2)c(F)cc2c(=O)c(C(=O)O)cn(C3CC3)c12 (centres unmarked) [Compd. 9],0.013 µg/mL
2,Cc1c(N2CC3CCCNC3C2)c(F)cc2c(=O)c(C(=O)O)cn([C@@H]3C[C@@H]3F)c12 (some centres unmarked) [Compd. 10],0.006 µg/mL
3,Cc1c(N2CC(N)C3(CC3)C2)c(F)cc2c(=O)c(C(=O)O)cn(C3CC3)c12 (centres unmarked) [Compd. 11],0.05 µg/mL
4,Cc1c(N2CC(N)C3(CC3)C2)c(F)cc2c(=O)c(C(=O)O)cn([C@@H]3C[C@@H]3F)c12 (some centres unmarked) [Compd. 12],0.025 µg/mL

# Same assay, conditions: M. tuberculosis No. 40; Table 5
row,SMILES,MIC
1,Cc1c(N2CC3CCCNC3C2)c(F)cc2c(=O)c(C(=O)O)cn(C3CC3)c12 (centres unmarked) [Compd. 9],0.013 µg/mL
2,Cc1c(N2CC3CCCNC3C2)c(F)cc2c(=O)c(C(=O)O)cn([C@@H]3C[C@@H]3F)c12 (some centres unmarked) [Compd. 10],0.006 µg/mL
3,Cc1c(N2CC(N)C3(CC3)C2)c(F)cc2c(=O)c(C(=O)O)cn(C3CC3)c12 (centres unmarked) [Compd. 11],0.05 µg/mL
4,Cc1c(N2CC(N)C3(CC3)C2)c(F)cc2c(=O)c(C(=O)O)cn([C@@H]3C[C@@H]3F)c12 (some centres unmarked) [Compd. 12],0.025 µg/mL

# Same assay, conditions: M. tuberculosis No. 41; Table 5
row,SMILES,MIC
1,Cc1c(N2CC3CCCNC3C2)c(F)cc2c(=O)c(C(=O)O)cn(C3CC3)c12 (centres unmarked) [Compd. 9],<0.003 µg/mL
2,Cc1c(N2CC3CCCNC3C2)c(F)cc2c(=O)c(C(=O)O)cn([C@@H]3C[C@@H]3F)c12 (some centres unmarked) [Compd. 10],<0.003 µg/mL
3,Cc1c(N2CC(N)C3(CC3)C2)c(F)cc2c(=O)c(C(=O)O)cn(C3CC3)c12 (centres unmarked) [Compd. 11],0.013 µg/mL
4,Cc1c(N2CC(N)C3(CC3)C2)c(F)cc2c(=O)c(C(=O)O)cn([C@@H]3C[C@@H]3F)c12 (some centres unmarked) [Compd. 12],0.006 µg/mL

# Same assay, conditions: M. tuberculosis No. 43; Table 5
row,SMILES,MIC
1,Cc1c(N2CC3CCCNC3C2)c(F)cc2c(=O)c(C(=O)O)cn(C3CC3)c12 (centres unmarked) [Compd. 9],0.10 µg/mL
2,Cc1c(N2CC3CCCNC3C2)c(F)cc2c(=O)c(C(=O)O)cn([C@@H]3C[C@@H]3F)c12 (some centres unmarked) [Compd. 10],0.05 µg/mL
3,Cc1c(N2CC(N)C3(CC3)C2)c(F)cc2c(=O)c(C(=O)O)cn(C3CC3)c12 (centres unmarked) [Compd. 11],0.39 µg/mL
4,Cc1c(N2CC(N)C3(CC3)C2)c(F)cc2c(=O)c(C(=O)O)cn([C@@H]3C[C@@H]3F)c12 (some centres unmarked) [Compd. 12],0.10 µg/mL

# Same assay, conditions: M. tuberculosis No. 68; Table 5
row,SMILES,MIC
1,Cc1c(N2CC3CCCNC3C2)c(F)cc2c(=O)c(C(=O)O)cn(C3CC3)c12 (centres unmarked) [Compd. 9],0.025 µg/mL
2,Cc1c(N2CC3CCCNC3C2)c(F)cc2c(=O)c(C(=O)O)cn([C@@H]3C[C@@H]3F)c12 (some centres unmarked) [Compd. 10],0.013 µg/mL
3,Cc1c(N2CC(N)C3(CC3)C2)c(F)cc2c(=O)c(C(=O)O)cn(C3CC3)c12 (centres unmarked) [Compd. 11],0.05 µg/mL
4,Cc1c(N2CC(N)C3(CC3)C2)c(F)cc2c(=O)c(C(=O)O)cn([C@@H]3C[C@@H]3F)c12 (some centres unmarked) [Compd. 12],0.05 µg/mL

# Tested on: M. avium
# Assay: Antibacterial activity (MIC) against M. avium
# Type: cell-based, Mycobacterium avium
# Conditions: M. avium N-357; Table 3
# Method: Antibacterial activity of the compounds of the invention was measured in accordance with the method described in the literature of Antimicrob. […] In the tables, “OFLX” is an abbreviation of “OFLOXAIN”.
row,SMILES,MIC
1,Cc1c(N2CC3CCCNC3C2)c(F)cc2c(=O)c(C(=O)O)cn(C3CC3)c12 (centres unmarked) [Compd. 9],0.10 µg/mL
2,Cc1c(N2CC3CCCNC3C2)c(F)cc2c(=O)c(C(=O)O)cn([C@@H]3C[C@@H]3F)c12 (some centres unmarked) [Compd. 10],0.05 µg/mL
3,Cc1c(N2CC(N)C3(CC3)C2)c(F)cc2c(=O)c(C(=O)O)cn(C3CC3)c12 (centres unmarked) [Compd. 11],0.39 µg/mL
4,Cc1c(N2CC(N)C3(CC3)C2)c(F)cc2c(=O)c(C(=O)O)cn([C@@H]3C[C@@H]3F)c12 (some centres unmarked) [Compd. 12],0.20 µg/mL

# Same assay, conditions: M. avium N-444; Table 3
row,SMILES,MIC
1,Cc1c(N2CC3CCCNC3C2)c(F)cc2c(=O)c(C(=O)O)cn(C3CC3)c12 (centres unmarked) [Compd. 9],0.10 µg/mL
2,Cc1c(N2CC3CCCNC3C2)c(F)cc2c(=O)c(C(=O)O)cn([C@@H]3C[C@@H]3F)c12 (some centres unmarked) [Compd. 10],0.39 µg/mL
3,Cc1c(N2CC(N)C3(CC3)C2)c(F)cc2c(=O)c(C(=O)O)cn(C3CC3)c12 (centres unmarked) [Compd. 11],1.56 µg/mL
4,Cc1c(N2CC(N)C3(CC3)C2)c(F)cc2c(=O)c(C(=O)O)cn([C@@H]3C[C@@H]3F)c12 (some centres unmarked) [Compd. 12],0.39 µg/mL

# Same assay, conditions: M. avium N-458; Table 3
row,SMILES,MIC
1,Cc1c(N2CC3CCCNC3C2)c(F)cc2c(=O)c(C(=O)O)cn(C3CC3)c12 (centres unmarked) [Compd. 9],0.10 µg/mL
2,Cc1c(N2CC3CCCNC3C2)c(F)cc2c(=O)c(C(=O)O)cn([C@@H]3C[C@@H]3F)c12 (some centres unmarked) [Compd. 10],0.10 µg/mL
3,Cc1c(N2CC(N)C3(CC3)C2)c(F)cc2c(=O)c(C(=O)O)cn(C3CC3)c12 (centres unmarked) [Compd. 11],0.39 µg/mL
4,Cc1c(N2CC(N)C3(CC3)C2)c(F)cc2c(=O)c(C(=O)O)cn([C@@H]3C[C@@H]3F)c12 (some centres unmarked) [Compd. 12],0.39 µg/mL

# Same assay, conditions: M. avium N-472; Table 3
row,SMILES,MIC
1,Cc1c(N2CC3CCCNC3C2)c(F)cc2c(=O)c(C(=O)O)cn(C3CC3)c12 (centres unmarked) [Compd. 9],0.78 µg/mL
2,Cc1c(N2CC3CCCNC3C2)c(F)cc2c(=O)c(C(=O)O)cn([C@@H]3C[C@@H]3F)c12 (some centres unmarked) [Compd. 10],0.39 µg/mL
3,Cc1c(N2CC(N)C3(CC3)C2)c(F)cc2c(=O)c(C(=O)O)cn(C3CC3)c12 (centres unmarked) [Compd. 11],3.13 µg/mL
4,Cc1c(N2CC(N)C3(CC3)C2)c(F)cc2c(=O)c(C(=O)O)cn([C@@H]3C[C@@H]3F)c12 (some centres unmarked) [Compd. 12],1.56 µg/mL
